Patent US11236055B2 (Venenum Biodesign, LLC, priority 2016, dated 2022)

Columns and labels:
Mouse STC-1 cells = test: STC-1 GLP-1 assay; type: cell-based; settings: GLP-1 secretion, 2 h, coded A-C, read-out: Mouse STC-1 HTRF GLP-1 Activity (EC50)
Procedure: We evaluated Compounds of the present invention for their ability to induce GLP-1 production in mouse intestinal neuroendocrine tumor cells. Mouse STC-1 cells were cultured and maintained in high glucose DMEM (Sigma #5796) supplemented with 15% horse serum, 5% Fetal Bovine Serum (FBS), 1% penicillin/streptomycin, and 2 mM L-alanine L-glutamine (GlutaMax). Two days prior to analysis of GLP-1 secretion cells were harvested using Accutase (Sigma), spun down then resuspended in high glucose DMEM media containing 2 mM L-alanine L-glutamine (GlutaMax), 10% charcoal-dextran stripped FBS, and 50 μg/mL Gentamicin, at a density of 100,000 cells/mL. 100 μL of cell suspension was added to each well of a 96-well Poly-D-Lysine coated culture plate (Sigma; cat #2382493) and was incubated at 37° C. with 5% CO2.
Compounds were initially diluted in 100% DMSO (12-point serial dilution by half logs) in a 96-well plate and then were further diluted 1:500 in Hanks' Balanced Salt Solution (HBSS) containing protease inhibitor cocktail, DPP-IV inhibitor, and 0.1% fatty acid free bovine serum albumin. On the day of the experiment cells were washed once with HBSS. After wash, 100 μL of test compound was added to each well. The plate was incubated at 37° C. with 5% CO2 for 2 h. Supernatants were collected and GLP-1 secretion was measured using the Cisbio™ Active GLP-1 HTRF Assay Kit (Cisbio). Briefly, Anti-GLP-1-d2 conjugate and Anti-GLP-1 Terbium Cryptate conjugate stock solutions were prepared as per kit instructions. The two solutions were pre-mixed and 10 μL were transferred to a 384-well low volume plate (Greiner; cat #784075). 10 μL of collected supernatants were added to wells already containing the conjugate solution. The plate was covered and incubated at room temperature overnight. The plate was read on an Envision™ plate reader (Perkin Elmer).
In Table 34, EC50 values obtained from the STC-1 GLP-1 production assay for compounds of the present invention are summarized.

[1] = Pharmacokinetic profile in mice; type: in vivo; settings: mouse; fasted male Hilltop mice, 10 mg/kg oral gavage, plasma, mean of three mice
Procedure: Pharmacokinetic Profile in Mice
In this series of studies, the pharmacokinetic profile characteristics of compounds of the present invention were evaluated. The plasma concentration levels of the compounds were monitored in the blood stream (i.e., plasma) after oral gavage using Cmax, and area under the curve (AUC).
8 week old male Hilltop mice were fasted overnight. Animals were randomized into groups (n=9) by body weight. Mice were dosed with 10 mg/kg compound (in 20% PEG400/80% 0.5% carboxymethylcellulose (medium viscosity)+0.25% Tween-80) at a volume of 10 mL/kg through oral gavage. Blood was collected via orbital bleeding at 0, 0.25, 0.5, 1, 2, and 4 h post-dose, with no one mouse having more than 3 blood draws. Blood was collected in EDTA coated tubes. Samples were stored at −20° C. until analysis.
Quantitation of compound levels in plasma was accomplished by LC-MS/MS analysis. Standard curve and quality control samples were prepared in male CD-1 mouse plasma containing EDTA K^2+ as an anticoagulant at final concentrations ranging from 500 to 0.1 ng/mL. The plasma samples, calibration curve standards, and quality control samples were prepared in an identical method in a 96-well deep plate (1 mL) with a quenching solution (1:1 mixed acetonitrile:methanol containing the internal standard Reserpine @ 400 ng/mL). Low volume samples were supplemented with CD-1 mouse plasma. The plate was mixed on multi-tube votex for 1 min and centrifuged at 4000 rpm for 30 min at 4° C. (Sorvall® Super T21) before LC-MS/MS analysis. LC conditions were developed and optimized based on each compound as needed. The outlet of the column was coupled to AB Sciex 4000 QTrap Mass Spectrometer (AB Sciex, Brugg Switzerland). Detection was carried out using multiple reaction monitoring mode with positive-ion detection focusing. The pharmacokinetic parameters were derived from the plasma-time data and calculated using the standard non-compartmental method with WinNonlin (Pharsight, Mountain View, Calif.) or PK Solver (Comp. Meth. Prog. Biomed. (2010), 99, 306-314).
Values reported are the mean plasma concentration of three mice.

Row | EC50 (Mouse STC-1 cells) [nM] | Cmax [1] [ng/mL] | Compound
1 | 1000 to 30000 | 0.8 | Cc1cnccc1-c1cccc([C@H](C)N(CCCCNC(=O)NCS(=O)(=O)O)S(=O)(=O)c2ccccc2C(F)(F)F)c1 [Compound 28AC, (S)-(3-(4-(N-(1-(3-(3-methylpyridin-4-yl)phenyl)ethyl)-2-(trifluoromethyl)phenylsulfonamido)butyl)ureido)methanesulfonic acid]
2 | 100 to 999 | 39.4 | CCc1cnccc1-c1cccc([C@H](C)N(CCCC(=O)NCCNS(N)(=O)=O)S(=O)(=O)c2cccc(Cl)c2C)c1 [Compound 37AA, (S)-4-(3-chloro-N-(1-(3-(3-ethylpyridin-4-yl)phenyl)ethyl)-2-methylphenylsulfonamido)-N-(2-(sulfamoylamino)ethyl)butanamide]
3 | 100 to 999 | 4.6 | CCc1cnccc1-c1cccc([C@H](C)N(CCCCNC(=O)NCS(=O)(=O)O)S(=O)(=O)c2ccccc2C(F)(F)F)c1 [Compound 28AH, (S)-(3-(4-(N-(1-(3-(3-ethylpyridin-4-yl)phenyl)ethyl)-2-(trifluoromethyl)phenylsulfonamido)butyl)ureido)methanesulfonic acid]
4 | 100 to 999 | 4.4 | Cc1cnccc1-c1cccc([C@H](C)N(CCCCNC(=O)CS(=O)(=O)O)S(=O)(=O)c2ccccc2C(F)(F)F)c1 [Compound 31AA, (S)-2-((4-(N-(1-(3-(3-methylpyridin-4-yl)phenyl)ethyl)-2-(trifluoromethyl)phenylsulfonamido)butyl)amino)-2-oxoethanesulfonic acid]
5 | 100 to 999 | 1.5 | Cc1cnccc1-c1cccc(C(C)(C)N(CCCNC(=O)NCCS(=O)(=O)O)S(=O)(=O)c2cccc(Cl)c2C)c1 [Compound 29AA, 2-(3-(3-((3-Chloro-2-methyl-N-(2-(3-(3-methylpyridin-4-yl)phenyl)propan-2-yl)phenyl)sulfonamide)propyl)ureido)ethane-1-sulfonic acid]
6 | 100 to 999 | 0.7 | Cc1cnccc1-c1cccc([C@H](C)N(CCCCNC(=O)NCCS(=O)(=O)NCC(=O)O)S(=O)(=O)c2ccccc2C(F)(F)F)c1 [Compound 28AA, (S)-2-(3-(4-(N-(1-(3-(3-methylpyridin-4-yl)phenyl)ethyl)-2-(trifluoromethyl)phenylsulfonamido)butyl)ureido)ethanesulfonamido acetic acid]
7 | 100 to 999 | 1.8 | Cc1cnccc1-c1cccc([C@H](C)N(CCCCNC(=O)[C@@H](N)CS(=O)(=O)O)S(=O)(=O)c2ccccc2C(F)(F)F)c1 [Compound 31AC, (R)-2-amino-3-((4-(N-((S)-1-(3-(3-methylpyridin-4-yl)phenyl)ethyl)-2-(trifluoromethyl)phenylsulfonamido)butyl)amino)-3-oxopropane-1-sulfonic acid]

The remaining lines, values behind:

Row | Compound | EC50 (Mouse STC-1 cells) [nM] | Cmax [1] [ng/mL]
8 | Cc1cnccc1-c1cccc(C(C)(C)N(CCCC(=O)O)S(=O)(=O)c2ccccc2C(F)(F)F)c1 [Compound 14, 4-(N-(2-(3-(3-methylpyridin-4-yl)phenyl)propan-2-yl)-2-(trifluoromethyl)phenylsulfonamido)butanoic acid] | 100 to 999 | 1080
9 | CCc1cnccc1-c1cccc([C@H](C)N(CCCC(=O)NCCS(=O)(=O)O)S(=O)(=O)c2ccccc2C)c1 [Compound 20AR, (S)-2-(4-(N-(1-(3-(3-ethylpyridin-4-yl)phenyl)ethyl)-2-methylphenyl-sulfonamido)butanamido)ethane sulfonic acid] | 100 to 999 | 3.2
10 | Cc1cnccc1-c1cccc([C@H](C)N(CCCCC(=O)NCCS(=O)(=O)NCCC(=O)O)S(=O)(=O)c2ccccc2C(F)(F)F)c1 [Compound 20BM] | 1000 to 30000 | 0.6
11 | CCc1cnccc1-c1cccc([C@H](C)N(CCCC(=O)NCCS(=O)(=O)NCC(=O)O)S(=O)(=O)c2ccccc2C)c1 [Compound 20BU, (S)-2-(4-(2-methyl-N-(1-(3-(3-ethylpyridin-4-yl)phenyl)ethyl)phenylsulfonamido)butanamidoethylsulfonamido)acetate] | 100 to 999 | 1.1
12 | Cc1cnccc1-c1cccc([C@H](C)N(CCCC(=O)NCCNS(=O)(=O)CCC(=O)O)S(=O)(=O)c2cccc(Cl)c2C)c1 [Compound 26AB] | 100 to 999 | 2.6
13 | Cc1cnccc1-c1cccc([C@H](C)N(CCCC(=O)NCCS(=O)(=O)NCC(=O)O)S(=O)(=O)c2cccc(Cl)c2C)c1 [Compound 21AN, (S) 2-(3-(4-(3-chloro-2-methyl-N-(1-(3-(3-methylpyridin-4-yl)phenyl)ethyl)phenylsulfonamido)butanamido)ethylsulfonamido)acetic acid] | 100 to 999 | 1.9
14 | CCc1cnccc1-c1cccc(C2CN(C(=O)CCC(=O)O)CCN2S(=O)(=O)c2cccc(Cl)c2C)c1 (racemic) [Compound 46, (+/−) 4-(4-((3-Chloro-2-methylphenyl)sulfonyl)-3-(3-(3-ethylpyridin-4-yl)phenyl)piperazin-1-yl)-4-oxobutanoic acid] | 100 to 999 | 436
15 | Cc1cnccc1-c1cccc(C(C)(C)N(CCCNC(=O)NCS(=O)(=O)O)S(=O)(=O)c2cccc(Cl)c2C)c1 [Compound 29, (3-(3-((3-Chloro-2-methyl-N-(2-(3-(3-methylpyridin-4-yl)phenyl)propan-2-yl)phenyl)sulfonamide)propyl)ureido) methanesulfonic acid] | 100 to 999 | 2.5
16 | Cc1cnccc1-c1cccc([C@H](C)N(CCCC(=O)NCCNS(=O)(=O)CC(=O)O)S(=O)(=O)c2cccc(Cl)c2C)c1 [Compound 26AA] | 100 to 999 | 1.4
17 | CCc1cnccc1-c1cccc(C(C)(C)NS(=O)(=O)c2ccccc2C(F)(F)F)c1 [Compound 5, N-(2-(3-(3-ethylpyridin-4-yl)phenyl)propan-2-yl)-2-(trifluoromethyl)benzenesulfonamide] | 100 to 999 | 3.1
18 | Cc1cnccc1-c1cccc(C(C)(C)NS(=O)(=O)c2cccc(C(F)(F)F)c2)c1 [Compound 5AA, N-(2-(3-(3-methylpyridin-4-yl)phenyl)propan-2-yl)-3-(trifluoromethyl)benzenesulfonamide] | 100 to 999 | 128
19 | CCc1cnccc1-c1cccc([C@H](C)N(CCCC(=O)NC[C@@H](O)[C@H](O)[C@@H](O)[C@@H](O)CO)S(=O)(=O)c2cccc(Cl)c2C)c1 [Compound 20AN, 4-(3-chloro-N-((S)-1-(3-(3-ethylpyridin-4-yl)phenyl)ethyl)-2-methylphenylsulfonamido)-N-((2R,3S,4S,5S)-2,3,4,5,6-pentahydroxyhexyl)butanamide] | 100 to 999 | 1.7
20 | Cc1cnccc1-c1cccc([C@H](C)N(CCCC(=O)NCCS(=O)(=O)NCCC(=O)O)S(=O)(=O)c2cccc(Cl)c2C)c1 [Compound 21AL] | 100 to 999 | 7.6
21 | Cc1cnccc1-c1cccc(C(C)(C)N(CCCC(=O)NCS(=O)(=O)O)S(=O)(=O)c2ccccc2C(F)(F)F)c1 [Compound 20AB] | 100 to 999 | 1.5
22 | CCc1cnccc1-c1cccc(C2CN(C(=O)CS(=O)(=O)O)CCN2S(=O)(=O)c2cccc(Cl)c2C)c1 (centres unmarked) [Compound 49, 2-(4-((3-Chloro-2-methylphenyl)sulfonyl)-3-(3-(3-ethylpyridin-4-yl)phenyl)piperazin-1-yl)-2-oxoethanesulfonic acid] | 100 to 999 | 2.1
